The values below are quoted from earlier work in patent US20100216641A1, “Low VOC and Stable Plant Growth Regulator Liquid and Granule Compositions” (priority 2009, published 2010).

SMILES strings stand for the structures.

The conditions of this data set: at 25° C.

For the compound `O=C(Nc1ccccc1)Nc1ccnc(Cl)c1` [CPPU, forchlorfenuron], the water solubility is on record as 39 ppm.
